Laboratory results from patent publication US20220031800A1, “PEPTIDES FOR TREATING NON-EXUDATIVE MACULAR DEGENERATION AND OTHER DISORDERS OF THE EYE” (Allegro Pharmaceuticals, LLC, priority 2019, published 2022).
“And” between values parts separate entries of the source, which are not always exact repeats. Identical values can stand only once. Square brackets hold non-standard residues; d marks the D form. Peptide text beside a SMILES is read from it. Cya = N[C@@H](CS(=O)(=O)O)C(=O)O

Tested on: study eye of subjects with intermediate non-exudative AMD
Assay: SD-OCT Analysis 2 (thickness, volume, map coverage of retinal layers)
Type: in vivo, human
Conditions: change from baseline at Week 32
Procedure: Numerous study assessments were conducted at various time points throughout the study. Included among these study assessments were; refractive eye examinations, determinations of BCVA AND low-luminance BCVA, Lanthony D-15 color vision test, measurement of intraocular pressure (IOP), Indirect ophthalmoscopy/dilated fundus examinations and spectral-domain optical coherence tomography (SD-OCT). Also, blood and saliva samples were obtained from each subject for genetic analysis. The above-listed study assessments were performed at the time points indicated in Table 1, below: The OCT scans were analyzed by two (2) unrelated experts. In Analysis #2, the OCT images of study eyes were analyzed to determine mean thickness and mean volume of numerous retinal subfields and layer segments at baseline and at Week 12 for sham eyes and at baseline and at Week 32 for risuteganib eyes, to document any significant differences between groups of eyes based on baseline measurements or changes from baseline in those measurements. In addition to the quantitative analysis of OCT images, OCT Analysis #2 included qualitative assessment of the OCT images to identify GA, pseudodrusen, and disruption of the ELM and EZ layers. FIGS. 9A, 9B and 9C illustrate the level of varying pathology within the ELM based on quantitative mapping that were also assessed, with FIG. 9A (left) showing no ELM disruption, FIG. 9B (center) showing segmental disruption, and FIG. 9C showing diffuse disruption.

[1] = risuteganib nonresponder eyes, n = 12
[2] = risuteganib responder eyes, n = 12
[3] = risuteganib super-responder eyes, n = 8

C[C@@H](O)[C@H](NC(=O)[C@H](CS(=O)(=O)O)NC(=O)CNC(=O)[C@H](CCCNC(=N)N)NC(=O)CN)C(=O)N1CCC[C@H]1C(=O)O [risuteganib, Glycyl-L-arginylglycyl-3-sulfo-L-alanyl-L-threonyl-L-proline] (H-GRG[Cya]TP-OH)
Change in mean thickness, Inner retina mid subfield [1]: 2.274 μm
Change in mean thickness, ONL-EZ central subfield [1]: −6.486 μm
Change in mean thickness, ONL-EZ mid subfield [1]: −4.522 μm
Change in mean thickness, ONL-RPE central subfield [1]: −7.877 μm
Change in mean thickness, ONL-RPE foveal center [1]: −7.626 μm
Change in mean thickness, ONL-RPE mid subfield [1]: −6.320 μm
Change in mean thickness, RPE-BM central subfield [1]: −0.118 μm
Change in mean thickness, RPE-BM foveal center [1]: −3.740 μm
Change in mean thickness, RPE-BM mid subfield [1]: 1.114 μm
Change in mean thickness, Total retinal central subfield [1]: −5.981 μm
Change in mean thickness, Total retinal foveal center [1]: −9.112 μm
Change in mean thickness, Total retinal mid subfield [1]: −4.046 μm
Change in volume, ELM-EZ central subfield [1]: −0.001 mm^3
Change in volume, ELM-EZ mid subfield [1]: 0.002 mm^3
Change in volume, ELM-RPE [1]: 0.009 mm^3
Change in volume, ELM-RPE central subfield [1]: −0.002 mm^3
Change in volume, ELM-RPE mid subfield [1]: −0.003 mm^3
Change in volume, EZ-RPE [1]: 0.005 mm^3
Change in volume, EZ-RPE central subfield [1]: −0.001 mm^3
Change in volume, EZ-RPE mid subfield [1]: −0.006 mm^3
Change in volume, ONL-EZ central subfield [1]: −0.005 mm^3
Change in volume, ONL-EZ mid subfield [1]: −0.014 mm^3
Change in volume, ONL-RPE [1]: −0.026 mm^3
Change in volume, ONL-RPE central subfield [1]: −0.006 mm^3
Change in volume, ONL-RPE mid subfield [1]: −0.020 mm^3
Change in volume, RPE-BM [1]: 0.037 mm^3
Change in volume, RPE-BM central subfield [1]: 0.000 mm^3
Change in volume, RPE-BM mid subfield [1]: 0.004 mm^3
Change in volume, Total retinal [1]: 0.091 mm^3
Change in volume, Total retinal central subfield [1]: −0.004 mm^3
Change in volume, Total retinal mid subfield [1]: −0.012 mm^3
Map coverage, 0 μm EZ [1]: 1.469%
Map coverage, 0 μm RPE-BM [1]: 1.465%
Map coverage, 10 μm EZ [1]: 1.332%
Map coverage, 20 μm EZ [1]: 1.288%
Map coverage, 50 μm RPE-BM [1]: −1.794%
Map coverage, 150 μm RPE-BM [1]: 2.143%
Map coverage, 250 μm RPE-BM [1]: 0.000%
Change in mean thickness, ELM-EZ central subfield [2]: −2.322 μm
Change in mean thickness, ELM-EZ mid subfield [2]: −0.967 μm
Change in mean thickness, ELM-RPE central subfield [2]: −3.102 μm
Change in mean thickness, ELM-RPE foveal center [2]: −0.000 μm and 0.000 μm
Change in mean thickness, ELM-RPE mid subfield [2]: −2.141 μm
Change in mean thickness, EZ-RPE central subfield [2]: −0.779 μm
Change in mean thickness, EZ-RPE foveal center [2]: 0.975 μm
Change in mean thickness, EZ-RPE mid subfield [2]: −1.174 μm
Change in mean thickness, Inner retina central subfield [2]: 5.864 μm
Change in mean thickness, Inner retina mid subfield [2]: 5.512 μm
Change in mean thickness, ONL-EZ central subfield [2]: −5.775 μm
Change in mean thickness, ONL-EZ mid subfield [2]: −5.386 μm
Change in mean thickness, ONL-RPE central subfield [2]: −6.555 μm
Change in mean thickness, ONL-RPE foveal center [2]: 0.650 μm
Change in mean thickness, ONL-RPE mid subfield [2]: −6.561 μm
Change in mean thickness, RPE-BM central subfield [2]: −8.238 μm
Change in mean thickness, RPE-BM foveal center [2]: −12.512 μm
Change in mean thickness, RPE-BM mid subfield [2]: −5.287 μm
Change in mean thickness, Total retinal central subfield [2]: −0.691 μm
Change in mean thickness, Total retinal foveal center [2]: 0.804 μm
Change in mean thickness, Total retinal mid subfield [2]: −1.049 μm
Change in volume, ELM-EZ central subfield [2]: −0.002 mm^3
Change in volume, ELM-EZ mid subfield [2]: −0.003 mm^3
Change in volume, ELM-RPE [2]: 0.086 mm^3
Change in volume, ELM-RPE central subfield [2]: −0.002 mm^3
Change in volume, ELM-RPE mid subfield [2]: −0.007 mm^3
Change in volume, EZ-RPE [2]: −0.059 mm^3
Change in volume, EZ-RPE central subfield [2]: −0.001 mm^3
Change in volume, EZ-RPE mid subfield [2]: −0.004 mm^3
Change in volume, ONL-EZ central subfield [2]: −0.004 mm^3
Change in volume, ONL-EZ mid subfield [2]: −0.017 mm^3
Change in volume, ONL-RPE [2]: 0.009 mm^3
Change in volume, ONL-RPE central subfield [2]: −0.005 mm^3
Change in volume, ONL-RPE mid subfield [2]: −0.021 mm^3
Change in volume, RPE-BM [2]: −0.049 mm^3
Change in volume, RPE-BM central subfield [2]: −0.007 mm^3
Change in volume, RPE-BM mid subfield [2]: −0.017 mm^3
Change in volume, Total retinal [2]: −0.188 mm^3
Change in volume, Total retinal central subfield [2]: 0.000 mm^3
Change in volume, Total retinal mid subfield [2]: −0.004 mm^3
Map coverage, 0 μm EZ [2]: 3.679%
Map coverage, 0 μm RPE-BM [2]: 1.099%
Map coverage, 10 μm EZ [2]: 3.699%
Map coverage, 20 μm EZ [2]: 3.574%
Map coverage, 50 μm RPE-BM [2]: −3.494%
Map coverage, 150 μm RPE-BM [2]: 3.335%
Map coverage, 250 μm RPE-BM [2]: −0.011%
Change in mean thickness, ELM-EZ central subfield [3]: −1.658 μm
Change in mean thickness, ELM-EZ mid subfield [3]: −1.049 μm
Change in mean thickness, ELM-RPE central subfield [3]: −3.461 μm
Change in mean thickness, ELM-RPE foveal center [3]: 2.925 μm
